Reference: patent US9776964B2, “Phenoxyethyl cyclic amine derivatives and their activity as EP4 receptor modulators” (Eli Lilly and Company, priority 2013, dated 2017)
Structures can show the parent of a compound that is named as a salt.

Legend:
human EP2 = target: T1, human EP2 (Homo sapiens, UniProt P43116); experiment: In vitro binding to human EP2 ([3H]-PGE2 displacement, membranes); conditions: HEK293 membranes, n = 1, read-out: hEP2, Ki
T1 construct: expressed in transfected cells; host or cells: HEK293 (transient)
T1 sequence (P43116 whole entry): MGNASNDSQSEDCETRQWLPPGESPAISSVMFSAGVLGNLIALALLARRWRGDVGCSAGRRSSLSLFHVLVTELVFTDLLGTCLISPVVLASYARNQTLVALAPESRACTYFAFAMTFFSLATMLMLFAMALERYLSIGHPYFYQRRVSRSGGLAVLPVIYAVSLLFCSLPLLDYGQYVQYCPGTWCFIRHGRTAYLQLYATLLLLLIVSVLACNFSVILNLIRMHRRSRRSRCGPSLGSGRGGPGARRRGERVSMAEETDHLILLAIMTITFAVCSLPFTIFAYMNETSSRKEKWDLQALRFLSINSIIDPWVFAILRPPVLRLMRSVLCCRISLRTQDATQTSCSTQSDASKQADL
Procedure: (§1) hEP1 and hEP4 membranes are prepared from recombinant HEK293 cells stably expressing human EP1 (Genbank accession number AY275470) or EP4 (Genbank accession number AY429109) receptors. hEP2 and hEP3 membranes are prepared from HEK293 cells transiently transfected with EP2 (Genbank accession number AY275471) or EP3 (isoform VI: Genbank accession number AY429108) receptor plasmids. Frozen cell pellets are homogenized in homogenization buffer using a Teflon/glass homogenizer. Membrane protein is aliquoted and quick frozen on dry ice prior to storage at −80° C. […]
(§2) Kd values for [3H]-PGE2 binding to each receptor are determined by saturation binding studies or homologous competition. […] Nonspecific binding is calculated by comparing binding in the presence and absence of 2 μM of PGE2. The membranes are harvested by filtration (TomTek harvester), washed 4 times with cold buffer (10 mM MES pH 6.0 with KOH, 10 mM MgCl2), dried in a 60° C. oven, and the radioactivity is quantified as counts per minute (CPM) using a TopCount detector. Percent specific binding is calculated as the percent of the binding in the absence of any inhibitor, corrected for binding in the presence of 2 uM of PGE2. […] Results are expressed as the geometric mean±standard deviation; n=number of independent determinations. The standard deviation is calculated by the delta method, being SDlog Ki×geometric mean×ln(10).

human EP1 = target: T2, human EP1 (Homo sapiens, UniProt P34995); experiment: In vitro binding to human EP1 ([3H]-PGE2 displacement, membranes); conditions: HEK293 membranes, n = 1, read-out: hEP1, Ki
T2 construct: expressed in transfected cells
T2 sequence (P34995 1-402): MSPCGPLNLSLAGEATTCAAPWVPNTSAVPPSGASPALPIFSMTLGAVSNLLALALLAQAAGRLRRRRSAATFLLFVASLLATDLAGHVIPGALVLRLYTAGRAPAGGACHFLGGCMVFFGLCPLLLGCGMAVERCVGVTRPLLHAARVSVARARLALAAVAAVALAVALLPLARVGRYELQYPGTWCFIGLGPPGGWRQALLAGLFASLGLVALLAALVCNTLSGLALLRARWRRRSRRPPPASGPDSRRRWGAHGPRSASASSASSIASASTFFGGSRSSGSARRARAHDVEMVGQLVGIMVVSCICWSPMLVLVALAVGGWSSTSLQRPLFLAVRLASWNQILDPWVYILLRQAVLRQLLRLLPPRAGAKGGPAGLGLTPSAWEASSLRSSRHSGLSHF
Procedure: as §1, §2

human EP4 [1] = target: T3, human EP4 (Homo sapiens, UniProt P35408); experiment: In vitro human EP4 functional antagonist activity (inhibition of PGE2-stimulated cAMP production, HTRF); assay type: cell-based; parameters: expressed in transfected cells; conditions: HEK293 cells expressing human EP4, EC80 of PGE2 (0.188 nM); geometric mean ± SD, n=6; read-out: IC50 measured at human EP4 (PGE2-stimulated cAMP production)
T3 sequence (P35408 whole entry): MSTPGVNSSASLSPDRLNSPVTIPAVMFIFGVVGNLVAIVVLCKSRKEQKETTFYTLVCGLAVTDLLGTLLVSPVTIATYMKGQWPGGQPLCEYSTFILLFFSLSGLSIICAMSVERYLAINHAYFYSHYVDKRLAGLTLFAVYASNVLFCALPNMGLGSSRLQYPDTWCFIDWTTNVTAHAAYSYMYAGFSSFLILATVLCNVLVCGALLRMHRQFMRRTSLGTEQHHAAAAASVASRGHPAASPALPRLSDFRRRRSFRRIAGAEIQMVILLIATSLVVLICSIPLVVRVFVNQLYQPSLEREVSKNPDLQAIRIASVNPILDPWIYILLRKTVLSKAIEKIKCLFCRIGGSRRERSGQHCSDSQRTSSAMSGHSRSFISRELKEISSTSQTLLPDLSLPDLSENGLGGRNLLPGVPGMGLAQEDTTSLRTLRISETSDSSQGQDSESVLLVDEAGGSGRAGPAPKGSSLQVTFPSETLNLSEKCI
Procedure: Assays are conducted in recombinant HEK293 cells stably expressing human EP4 receptor. The cell lines are maintained by culturing in DMEM with high glucose and pyridoxine hydrochloride (Invitrogen) supplemented with 10% fetal bovine serum (FBS), 1 mM sodium pyruvate, 10 mM HEPES, […] and 2 mM L-glutamine. Confluent cultures are grown at 37° C. in an atmosphere containing 5% CO2. Cells are harvested using 2.5% Trypsin-EDTA, suspended in freeze media (FBS with 6% DMSO) at 10^7 cells/mL and aliquots are stored in liquid nitrogen. Just before assay, cells are thawed in DMEM, centrifuged, and resuspended in cAMP buffer.
The inhibition of PGE2-stimulated cAMP production by EP4 antagonists is measured using HTRF; (Cisbio catalog #62AM4PEB). […] The HTRF signal is detected using an EnVision® plate reader (Perkin-Elmer) to calculate the ratio of fluorescence at 665 nm to 620 nm. […] Results are expressed as the geometric mean±standard deviation; n=number of independent determinations. The standard deviation is calculated by the delta method, being SDlog Ki×geometric mean×ln(10).

human EP3 (isoform VI) = target: T4, human EP3 (isoform VI) (Homo sapiens, UniProt P43115); experiment: In vitro binding to human EP3 ([3H]-PGE2 displacement, membranes)
T4 sequence (P43115 1-359): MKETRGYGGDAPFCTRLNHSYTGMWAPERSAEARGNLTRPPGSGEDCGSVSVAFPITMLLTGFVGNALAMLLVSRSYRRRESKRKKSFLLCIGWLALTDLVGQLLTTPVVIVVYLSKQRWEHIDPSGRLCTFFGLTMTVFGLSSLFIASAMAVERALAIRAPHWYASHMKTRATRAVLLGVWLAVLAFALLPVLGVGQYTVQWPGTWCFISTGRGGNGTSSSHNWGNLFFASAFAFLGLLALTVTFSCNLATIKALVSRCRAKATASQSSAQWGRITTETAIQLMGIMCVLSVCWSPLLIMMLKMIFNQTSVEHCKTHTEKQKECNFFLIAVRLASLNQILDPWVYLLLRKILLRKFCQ
Procedure: as §1, §2

human EP4 [2] = target: T3, human EP4; experiment: In vitro binding to human EP4 ([3H]-PGE2 displacement, membranes); parameters: expressed in transfected cells; conditions: HEK293 membranes, geometric mean ± SD, n = 6, read-out: hEP4, Ki
Procedure: as §1, §2

human EP4 [3] = target: T3, human EP4; experiment: In vitro antagonist activity in human whole blood (reversal of PGE2 inhibition of LPS-induced TNFα production); assay type: cell-based; parameters: Blood is collected from normal volunteer donors into sodium heparin vacutainer tubes; from tissue; host or cells: human whole blood from volunteer donors; conditions: 10 μg/mL LPS + 10 nM PGE2, 20-24 hours, geometric mean ± SD, n=6, read-out: IC50 in human blood TNFα induction assay
Text: The inhibitory effects of PGE2 on LPS-induced TNFα production from macrophages/monocytes are believed to be mediated by EP4 receptors (See Murase, A., et al., Life Sciences, 82:226-232 (2008)). The ability of the compound of Example 8 to reverse the inhibitory effect of PGE2 on LPS-induced TNFα production in human whole blood is an indicia of functional activity.
Blood is collected from normal volunteer donors into sodium heparin vacutainer tubes. Donors have not taken NSAIDs or celecoxib within 48 hours or glucocorticoids within two weeks of the donation. All tubes/donor are pooled into 50 mL Falcon conical centrifuge tubes and 98 μL/well is distributed into 96-well tissue culture plates (Falcon 3072). […] TNFα levels in 2 μL plasma are quantified by a commercially available enzyme immunoassay (R&D Systems DY210), using Immulon 4 HBX plates (Thermo 3855) and 3,3′,5,5′ tetramethylbiphenyl-4,4′-diamine substrate (KPL 50-76-03). The plates are read at A450-A650 on a plate reader (Molecular Devices Versamax) using SOFTmaxPRO (v. 4.3.1) software. IC50s are calculated using Graphpad Prism (v. 4) nonlinear regression, sigmoidal dose response curve fitting. Results are expressed as the geometric mean±standard deviation; n=number of independent determinations The standard deviation is calculated by the delta method, being SDlog Ki×geometric mean×ln(10).

Compound: C[C@H](NC(=O)[C@H]1CC(F)(F)CCN1CCOc1ccccc1)c1ccc(C(=O)O)cc1 [Example 8, 4-((1S)-1-(((2R)-1-(2-phenoxyethyl)-4,4-difluoropiperidin-2-carbonyl)amino)ethyl)benzoic acid hydrochloride]
- Ki (human EP2): 956 nM
- Ki (human EP1): > 12.5 µM
- IC50 (human EP4 [1]): 1.76 ± 1.51 nM
- Ki (human EP3 (isoform VI)): > 14.8 µM
- Ki (human EP4 [2]): 3.68 ± 3.32 nM
- IC50 (human EP4 [3]): 78.2 ± 61 nM
